Literature values in PMC10928227, “Assessing biologic/toxicologic effects of extractables from plastic contact materials for advanced therapy manufacturing using cell painting assay and cytotoxicity screening” (Scientific Reports, 2024).
Like-named read-outs stand apart in the source and are kept apart here.

Details: cited from earlier work; for Risk based on in vitro genotoxicity data from database (from QSAR-toolbox): not checked for in vivo relevance, ref QSAR Toolbox 4.5 database; for Gene mutation, Bacterial Reverse Mutation Assay (e.g. Ames Test): Salmonella typhimurium; for Chromosome aberration, in Vitro Mammalian Chromosome Aberration Test: Chinese hamster
[1] = Strain TA 100, in Vitro, Database: Bacterial mutagenicity ISSSTY, ref CCRIS database,Toxnet databases (Romualdo Benigni)
[2] = Strain TA 102, in Vitro, Database: Bacterial mutagenicity ISSSTY, ref CCRIS database,Toxnet databases (Romualdo Benigni)
[3] = in Vitro, No Strain Information, Database Genotoxicity OASIS, ref Journal of Medicinal Chemistry 48 (1), pp. 312-32, 25, Kazius J, McGuire R., Bursi R
[4] = in Vitro, Strain TA 98, Database Bacterial mutagenicity ISSSTY, ref CCRIS database,Toxnet databases, Romualdo Benigni, 02.5.2011
[5] = in Vitro, Strain TA 1535, Database Bacterial mutagenicity ISSSTY, ref CCRIS database,Toxnet databases, Romualdo Benigni, 02.5.2011
[6] = in Vitro, Strain TA 1537, Database Bacterial mutagenicity ISSSTY, ref CCRIS database,Toxnet databases, Romualdo Benigni, 02.5.2011
[7] = Strain TA 98, in Vitro, Database: Bacterial mutagenicity ISSSTY, ref CCRIS database,Toxnet databases (Romualdo Benigni)
[8] = in Vitro, Strain TA 97, Database Genotoxicity OASIS, ref P&G
[9] = in Vitro, Strain TA 98, Database Genotoxicity OASIS, ref P&G
[10] = in Vitro, Strain TA 100, Database Genotoxicity OASIS, ref P&G
[11] = in Vitro, Strain TA 1535, Database Genotoxicity OASIS, ref P&G
[12] = in Vitro, Strain TA 1537, Database Genotoxicity OASIS, ref P&G
[13] = in Vitro, Strain TA 1538, Database Genotoxicity OASIS, ref P&G

SMILES: Oc1ccccc1 [Phenol]
- Measured and predicted data (remark on genetic toxicity) (heading line of the measured and predicted data section, ref QSAR Toolbox database): suspected of causing genetic defects
- Risk based on in vitro genotoxicity data from database (from QSAR-toolbox): Positive in vitro data

SMILES: CCCCCCCCCc1ccc(O)cc1 [104-40-5]
- Gene mutation, Bacterial Reverse Mutation Assay (e.g. Ames Test) [1]: Negative
- Gene mutation, Bacterial Reverse Mutation Assay (e.g. Ames Test) [2]: Negative
- Gene mutation, Bacterial Reverse Mutation Assay (e.g. Ames Test) [3]: Negative
- Gene mutation, Bacterial Reverse Mutation Assay (e.g. Ames Test) (in Vitro, Strain TA 97, Database Bacterial mutagenicity ISSSTY, ref CCRIS database,Toxnet databases, Romualdo Benigni, 02.5.2011): Negative
- Gene mutation, Bacterial Reverse Mutation Assay (e.g. Ames Test) [4]: Negative
- Gene mutation, Bacterial Reverse Mutation Assay (e.g. Ames Test) (in Vitro, Strain TA 100, Database Bacterial mutagenicity ISSSTY, ref CCRIS database,Toxnet databases, Romualdo Benigni, 02.5.2011): Negative
- Gene mutation, Bacterial Reverse Mutation Assay (e.g. Ames Test) (in Vitro, Strain TA 102, Database Bacterial mutagenicity ISSSTY, ref CCRIS database,Toxnet databases, Romualdo Benigni, 02.5.2011): Negative
- Gene mutation, Bacterial Reverse Mutation Assay (e.g. Ames Test) (in Vitro, Strain TA 104, Database Bacterial mutagenicity ISSSTY, ref CCRIS database,Toxnet databases, Romualdo Benigni, 02.5.2011): Negative
- Gene mutation, Bacterial Reverse Mutation Assay (e.g. Ames Test) [5]: Negative
- Gene mutation, Bacterial Reverse Mutation Assay (e.g. Ames Test) [6]: Negative
- Gene mutation, Bacterial Reverse Mutation Assay (e.g. Ames Test) (in Vitro, Strain TA 1538, Database Bacterial mutagenicity ISSSTY, ref CCRIS database,Toxnet databases, Romualdo Benigni, 02.5.2011): Negative

SMILES: Sc1nc2ccccc2s1 [2-Mercaptobenzothiazole]
- Risk based on in vitro genotoxicity data from database (from QSAR-toolbox): Positive in vitro data

SMILES: CCCCOC(=O)c1ccccc1C(=O)OCCCC [84-74-2]
- Gene mutation, Bacterial Reverse Mutation Assay (e.g. Ames Test) [7]: Negative
- Gene mutation, Bacterial Reverse Mutation Assay (e.g. Ames Test) (Strain TA 1535, in Vitro, Database: Bacterial mutagenicity ISSSTY, ref CCRIS database,Toxnet databases (Romualdo Benigni)): Negative
- Gene mutation, Bacterial Reverse Mutation Assay (e.g. Ames Test) (Strain TA 1537, in Vitro, Database: Bacterial mutagenicity ISSSTY, ref CCRIS database,Toxnet databases (Romualdo Benigni)): Negative
- Chromosome aberration, in Vitro Mammalian Chromosome Aberration Test (in Vitro, Chinese Hamster Lung (CHL), Duration 6÷18 h, Database Genotoxicity OASIS, ref Sofuni, T., Ed. (1998). Data Book of Chromosomal Aberration Test In Vitro, Revised Edition): Negative
- Chromosome aberration, in Vitro Mammalian Chromosome Aberration Test (in Vitro, Chinese Hamster Lung (CHL), Duration 24÷48 h, Database Genotoxicity OASIS, ref Sofuni, T., Ed. (1998). Data Book of Chromosomal Aberration Test In Vitro, Revised Edition): Negative
- Gene mutation, Bacterial Reverse Mutation Assay (e.g. Ames Test) [8]: Negative
- Gene mutation, Bacterial Reverse Mutation Assay (e.g. Ames Test) [4]: Negative
- Gene mutation, Bacterial Reverse Mutation Assay (e.g. Ames Test) [9]: Negative
- Gene mutation, Bacterial Reverse Mutation Assay (e.g. Ames Test) [10]: Negative
- Gene mutation, Bacterial Reverse Mutation Assay (e.g. Ames Test) [5]: Negative
- Gene mutation, Bacterial Reverse Mutation Assay (e.g. Ames Test) [11]: Negative
- Gene mutation, Bacterial Reverse Mutation Assay (e.g. Ames Test) [6]: Negative
- Gene mutation, Bacterial Reverse Mutation Assay (e.g. Ames Test) [12]: Negative
- Gene mutation, Bacterial Reverse Mutation Assay (e.g. Ames Test) [13]: Negative

SMILES: Nc1ccccc1 [Aniline]
- Risk based on in vitro genotoxicity data from database (from QSAR-toolbox): Positive in vitro data

SMILES: CCCCCCCC(=O)O [124-07-2]
- Chromosome aberration, in Vitro Mammalian Chromosome Aberration Test (in Vitro, Chinese Hamster Lung Cells, Guidelines For Screening Mutagenicity Testing of Chemicals (Chemical Substances Control Law of Japan), Database Toxicity Japan MHLW, ref Japan Ministry of Health Labour and Welfare, http://dra4.nihs.go.jp/mhlw_data/jsp/SearchPageENG.jsp): Negative

SMILES: Cc1cc(C)c(C(=O)P(=O)(c2ccccc2)c2ccccc2)c(C)c1 [75980-60-8]
- Chromosome aberration, in Vitro Mammalian Chromosome Aberration Test (in Vitro, Chinese Hamster Cells, Database Genotoxicity OASIS, ref Scientific Committee on Consumer Safety ( SCCS), 27 March 2014, SCCS/1528/14): Negative

SMILES: CN1CCCC1=O [872-50-4]
- Gene mutation, Bacterial Reverse Mutation Assay (e.g. Ames Test) (Strain TA 97, in Vitro, Database: Bacterial mutagenicity ISSSTY, ref CCRIS database,Toxnet databases (Romualdo Benigni)): Negative
- Gene mutation, Bacterial Reverse Mutation Assay (e.g. Ames Test) [7]: Negative
- Gene mutation, Bacterial Reverse Mutation Assay (e.g. Ames Test) [1]: Negative
- Gene mutation, Bacterial Reverse Mutation Assay (e.g. Ames Test) [2]: Negative
- Gene mutation, Bacterial Reverse Mutation Assay (e.g. Ames Test) (Strain TA 104, in Vitro, Database: Bacterial mutagenicity ISSSTY, ref CCRIS database,Toxnet databases (Romualdo Benigni)): Negative
- Gene mutation, Bacterial Reverse Mutation Assay (e.g. Ames Test) (Strain TA 2638, in Vitro, Database: Bacterial mutagenicity ISSSTY, ref CCRIS database,Toxnet databases (Romualdo Benigni)): Negative
- Gene mutation, Bacterial Reverse Mutation Assay (e.g. Ames Test) [3]: Negative
- Gene mutation, Bacterial Reverse Mutation Assay (e.g. Ames Test) [8]: Negative
- Gene mutation, Bacterial Reverse Mutation Assay (e.g. Ames Test) [9]: Negative
- Gene mutation, Bacterial Reverse Mutation Assay (e.g. Ames Test) [10]: Negative
- Gene mutation, Bacterial Reverse Mutation Assay (e.g. Ames Test) (in Vitro, Strain TA 102, OECD Guideline 471, Database Genotoxicity OASIS, ref CCRIS database,Toxnet databases): Negative
- Gene mutation, Bacterial Reverse Mutation Assay (e.g. Ames Test) [11]: Negative
- Gene mutation, Bacterial Reverse Mutation Assay (e.g. Ames Test) [12]: Negative
- Gene mutation, Bacterial Reverse Mutation Assay (e.g. Ames Test) [13]: Negative
